Values quoted from earlier work as cited in patent US8309490B2, “Low VOC and stable plant growth regulator liquid and granule compositions” (Valent BioSciences Corporation, priority 2009, dated 2012).

Conditions: at 25° C.

O=C(Nc1ccccc1)Nc1ccnc(Cl)c1 [CPPU, forchlorfenuron]
water solubility: 39 ppm
